These results are taken from publication PMC11595719, “Design of Ctenophore Ca^2+-Regulated Photoprotein Berovin Capable of Being Converted into Active Protein Under Physiological Conditions: Computational and Experimental Approaches” (Life, 2024).

What all share (assay): Trp fluorescence quenching at […] nm
Common to all, as to format: binding

Assay [1] deals with T1, berovin (apo-berovin, BAwt) (Beroe abyssicola, UniProt H8ZZK1, K90A/N107S).
T1 construct: gene BA2; monomeric

Assay [2] has as its target T2, berovin (apo-berovin) (Beroe abyssicola, UniProt H8ZZK1, K90M/N107S/W103F).
T2 construct: gene BA2; monomeric

Assay [3] has as its target T3, berovin (apo-berovin, BAwt) (Beroe abyssicola, UniProt H8ZZK1).
T3 construct: gene BA2; monomeric
T3 sequence (H8ZZK1 1-208): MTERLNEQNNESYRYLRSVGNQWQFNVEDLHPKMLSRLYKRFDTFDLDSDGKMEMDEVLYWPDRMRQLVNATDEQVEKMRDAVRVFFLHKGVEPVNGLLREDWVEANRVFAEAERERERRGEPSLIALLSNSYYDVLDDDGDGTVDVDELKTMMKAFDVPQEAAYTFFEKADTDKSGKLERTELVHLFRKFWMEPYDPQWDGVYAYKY

Assay [4] addresses T4, berovin (apo-berovin, BAwt) (Beroe abyssicola, UniProt H8ZZK1, K90M).
T4 construct: gene BA2; monomeric

T1 sequence (H8ZZK1 entry or part of it K90A/N107S): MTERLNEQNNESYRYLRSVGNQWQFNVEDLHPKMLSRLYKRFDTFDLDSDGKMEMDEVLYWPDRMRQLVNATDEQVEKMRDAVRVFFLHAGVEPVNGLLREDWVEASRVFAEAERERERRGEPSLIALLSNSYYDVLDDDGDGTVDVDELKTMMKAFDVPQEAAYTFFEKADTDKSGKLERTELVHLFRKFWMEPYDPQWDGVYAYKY
T2 sequence (H8ZZK1 entry or part of it K90M/W103F/N107S): as the sequence (H8ZZK1 entry or part of it K90A/N107S) above, with A90M, W103F counted along it
T4 sequence (H8ZZK1 entry or part of it K90M): as the sequence (H8ZZK1 entry or part of it K90A/N107S) above, with A90M, S107N counted along it

With `Oc1ccc(Cc2nc3c(Cc4ccccc4)nc(-c4ccc(O)cc4)cn3c2O)cc1` [coelenterazine], the Kd stood at 1.3 ± 0.15 µM in assay [1], 6.62 ± 0.54 µM in assay [2], 4.72 ± 0.36 µM in assay [3] and 2.61 ± 0.28 µM in assay [4].

Usually Kd stands for the constant that tells how readily two partners part at equilibrium. Read a low Kd as higher affinity.
